Results reported in patent US10081632B2, “Substituted tetrahydropyrido[3′,2′:4,5]pyrrolo[1,2-α]pyrazine-2-carboxamides as RSK inhibitors” (Phoenix Molecular Designs, priority 2016, dated 2018).
Counter-ions that a name gives are not always drawn.

What was measured:
JIMT-1 cells [1] = test: Monolayer growth inhibition, crystal violet assay; type: cell-based; settings: Homo sapiens; JIMT-1 (HER2), 5 days, single dose on day 1
Excerpt: (§1) In all instances a single dose was given on day 1 of the experiment. […] Complete (100%) growth suppression was achievable with several of the compounds in multiple different cell lines.

T47D cells [2] = test: Monolayer growth inhibition, crystal violet assay; type: cell-based; settings: Homo sapiens; T47D (ER/PR), 5 days, single dose on day 1
Excerpt: as §1

HCC1937 cells [3] = test: Monolayer growth inhibition, crystal violet assay; type: cell-based; settings: Homo sapiens; HCC1937 (TNBC, BRCA Mutant), 5 days, single dose on day 1
Excerpt: as §1

MDA-MB-468 cells [4] = test: Monolayer growth inhibition, crystal violet assay; type: cell-based; settings: Homo sapiens; MDA-MB-468 (TNBC), 5 days, single dose on day 1
Excerpt: as §1

SUM149-PTXR cells [5] = test: Monolayer growth inhibition, crystal violet assay; type: cell-based; settings: Homo sapiens; SUM149-PTXR (TNBC, BRCA Mutant), 5 days, single dose on day 1
Excerpt: (§2) In all instances a single dose was given on day 1 of the experiment.

MDA-MB-435 cells [6] = test: Monolayer growth inhibition, crystal violet assay; type: cell-based; settings: Homo sapiens; MDA-MB-435 (Melanoma), 5 days, single dose on day 1
Excerpt: as §2

PC3 cells [7] = test: Monolayer growth inhibition, crystal violet assay; type: cell-based; settings: Homo sapiens, PC-3; PC3 (Prostate), 5 days, single dose on day 1
Excerpt: as §2

4T1 cells [8] = test: Monolayer growth inhibition, crystal violet assay; type: cell-based; settings: Mus musculus; 4T1 (TNBC), 5 days, single dose on day 1
Excerpt: as §2

HCC1143 cells [9] = test: Monolayer growth inhibition, crystal violet assay; type: cell-based; settings: Homo sapiens; HCC1143 (TNBC), 5 days, single dose on day 1
Excerpt: as §2

MDA-MB-231 cells [10] = test: Monolayer growth inhibition, crystal violet assay; type: cell-based; settings: Homo sapiens; MDA-MB-231 (TNBC), 5 days, single dose on day 1
Excerpt: as §2

SUM149 cells [11] = test: Monolayer growth inhibition, crystal violet assay; type: cell-based; settings: Homo sapiens; SUM149 (TNBC, BRCA Mutant), 5 days, single dose on day 1
Excerpt: as §2

All cell lines [12] = test: Monolayer growth inhibition, crystal violet assay, range over all cell lines; type: cell-based; settings: 120 h; range of IC50 over all cell lines of the table; read-out: IC50 Values - Crystal Violet (5 Days), Range, All
Excerpt: as §1

MDA-MB-468 cells [13] = test: Soft agar growth inhibition assay; type: cell-based, Human; settings: Homo sapiens; MDA-MB-468 (TNBC), 14-22 days
[14] = tested on: phosphorylated Y-box binding protein-1 (YB-1) at serine 102 (P-YB-1S102); test: Immunoblotting of cell signalling, loss of P-YB-1 in MDA-MB-231 cells; settings: Homo sapiens, MDA-MB-231, read-out: IC50 values for P-YB-1
Protocol: Following desired experimental conditions, breast cancer cell lines grown and treated in 6 well plates or 100 mm culture dishes (Grenier Bio-One) were placed on ice and the supernatant from each well was removed and the cells were washed in cold PBS. Following removal of PBS, cells were exposed to radioimmunoprecipitation assay (RIPA) buffer (50 mM Tris-HCl (pH 8), 150 mM NaCl, 1% NP-40, 0.5% sodium deoxycholate, 0.1% SDS; Fisher Scientific) supplemented with 1% phosphatase inhibitor (Fisher Scientific) and 1% protease inhibitor (Fisher Scientific) for 10 minutes. Samples were transferred to eppendorf tubes, vortexed and then centrifuged at 14 000 rpm for 10 minutes. Supernatants were collected as whole cell lysates.
To begin, the protein content of the lysates was measured using the Bicinchoninic Acid (BCA) Protein Assay Kit (Pierce), which included a protein standard curve generated with bovine serum albumin. Appropriate volumes of samples and loading buffer (50 mM Tris-HCl (pH 6.8), 2% SDS, 10% glycerol, 1% j-mercaptoethanol, 12.5 mM EDTA, 0.02% bromophenol blue) were mixed, ensuring that equal amounts of protein were loaded. For the majority of experiments in this study, 30 μg of protein per well was loaded. Samples were then resolved on SDS-PAGE (polyacrylamide gel electrophoresis) using various percentages of acrylamide gels (8%-12%), depending on the proteins of interest. SDS-PAGE was run in SDS running buffer (25 mM Tris, 192 mM glycine, 0.1% SDS) and then transferred to nitrocellulose membranes (Bio-Rad) in transfer buffer (48 mM Tris, 39 mM glycine, 20% (v/v) methanol) at 100 volts for 90 minutes at room temperature. Immunoblots were then blocked in 5% skim milk in tris-buffered saline with 0.1% Tween-20 (TBS-T; 50 mM Tris-HCl, pH 7.5, 150 mM NaCl, 0.1% (v/v) Tween-20 (Fisher Scientific)) for 1 to 2 hours. Immunoblots were then incubated with selected primary antibodies diluted in TBS-T with 0.1% gelatin (Bio-Rad) and 0.05% sodium azide (Alfa Aesar) overnight. Following washes with TBT-T 4 times for 8 to 10 minutes, immunoblots were incubated with appropriate secondary antibodies conjugated to horseradish peroxidise (Cell Signalling Technology) diluted in TBS-T plus 5% skim milk at a ratio of 1:5000 for 2 hours at room temperature. After an additional round of washes in TBS-T, immunoblots were exposed to combined enhanced chemiluminescence (ECL) reagents (Fisher Scientific) for 1 minute and developed using ChemiDoc MP Imaging System (Bio-Rad). For certain immunoblots, bands of proteins of interest were scanned and band intensity ratios were determined by densitometric analysis (ImageJ). […] Total YB-1 was used as a loading control (1:5000 Abcam). […] To assess whether cells are actively undergoing cell death, the activity of poly ADP ribose polymerase (PARP) (1:1000 CST) was also measured using the immunoblotting method.

All cell lines [15] = test: Monolayer growth inhibition, Alamar blue assay, range over all cell lines; type: cell-based; settings: 120 h; range of IC50 over all cell lines of the table; read-out: IC50 Values - Alamar Blue (5 Days), Range, All
Excerpt: as §2

[16] = Solubility assessment, 20 mg/ml solution; type: physicochemical
Protocol: Solubility is an important property for therapeutic drug candidates. Poor solubility can lead to low bioavailability resulting in suboptimal drug delivery. It can also prevent the evaluation of test agents in animals because the concentration(s) needed to achieve the desired effect cannot be achieved to poor solubility. For solubility assessments, small molecules targeting RSK were compared. For these assessments, 100 mM solutions of the compounds dissolved in DMSO were diluted in DMEM growth media (Life Technologies) supplemented with fetal bovine serum (FBS, Life Technologies) and 100 units/ml penicillin and 100 units/ml streptomycin (Life Technologies) to make 20 mg/ml solutions. Once diluted, the solutions were vortexed and examined for the formation of precipitates. […] For Compound 26, a 100 mM solution of the compound dissolved in DMSO was diluted in phosphate buffered saline (Life Technologies) to make a 20 mg/ml solution. The stock of […] was chosen because this is the upper end of what would be required to dose mice for a range of studies including MTD, PK, PD and efficacy. The pH of this solution was determined to be 2, as previously described. […] At high concentrations some RSK inhibitors were highly soluble while others were not. Compound 0 is (R)—N-(1-benzyl-1H-pyrazol-4-yl)-9-methyl-6-oxo-6,7,8,9-tetrahydropyrido[3′,2′:4,5]pyrrolo[1,2-a]pyrazine-2-carboxamide. Compound 0 was not soluble, whereas Compounds 18, 20, 21, 25 and 26 were soluble under the same conditions (Table 5).

MDA-MB-231 cells [17] = test: Soft agar growth inhibition assay; type: cell-based; settings: Homo sapiens; MDA-MB-231 (TNBC), 14-22 days; read-out: IC50 Values - Soft Agar (14-22 Days)
4T1 cells [18] = test: Soft agar growth inhibition assay; type: cell-based; settings: Mus musculus; 4T1 (TNBC), 14-22 days; read-out: IC50 Values - Soft Agar (14-22 Days)
Protocol: Two agar (Alfa Aesar) solutions (0.8% w/v and 0.4% w/v) were prepared in ultrapure water. The 0.8% agar solution was mixed in equal volumes with 2× media previously prepared from powder (Life Technologies) following the manufacturer's instructions and filter sterilized. The 0.8% agar and media solution was added to 24 well plates (Mandel Scientific) at 500 μl per well. The plates were placed in a humidified incubator at 37° C. with 5% CO2. Next, the 0.4% agar solution was mixed in equal volumes with 2× media. Breast cancer cell lines were added to this solution to achieve a final concentration of 2×10^4 cells per well and […] was added to each well on top of the bottom agar and media layer. […] The plates were returned to the incubator for 10-32 days, with a re-dosing of compounds or DMSO every 7 days. After 10-32 days, colonies were counted in 3 different fields of view for each well.
Representative compounds described herein were tested in the soft agar growth inhibition assay against the 4T1 breast cancer cell line.

JIMT-1 cells [19] = test: Monolayer growth inhibition, Alamar blue assay; type: cell-based; settings: Homo sapiens; JIMT-1 (HER2), 5 days, single dose on day 1
Excerpt: as §2

MDA-MB-435 cells [20] = test: Monolayer growth inhibition, Alamar blue assay; type: cell-based; settings: Homo sapiens; MDA-MB-435 (Melanoma), 5 days, single dose on day 1
Excerpt: as §2

PC3 cells [21] = test: Monolayer growth inhibition, Alamar blue assay; type: cell-based; settings: Homo sapiens, PC-3; PC3 (Prostate), 5 days, single dose on day 1
Excerpt: as §2

HCC1937 cells [22] = test: Monolayer growth inhibition, Alamar blue assay; type: cell-based; settings: Homo sapiens; HCC1937 (TNBC, BRCA Mutant), 5 days, single dose on day 1
Excerpt: as §2

4T1 cells [23] = test: Monolayer growth inhibition, Alamar blue assay; type: cell-based; settings: Mus musculus; 4T1 (TNBC), 5 days, single dose on day 1
Excerpt: as §2

HCC1143 cells [24] = test: Monolayer growth inhibition, Alamar blue assay; type: cell-based; settings: Homo sapiens; HCC1143 (TNBC), 5 days, single dose on day 1
Excerpt: as §2

MDA-MB-231 cells [25] = test: Monolayer growth inhibition, Alamar blue assay; type: cell-based; settings: Homo sapiens; MDA-MB-231 (TNBC), 5 days, single dose on day 1
Excerpt: as §2

SUM149 cells [26] = test: Monolayer growth inhibition, Alamar blue assay; type: cell-based; settings: Homo sapiens; SUM149 (TNBC, BRCA Mutant), 5 days, single dose on day 1
Excerpt: as §2

MDA-MB-468 cells [27] = test: Monolayer growth inhibition, Alamar blue assay; type: cell-based; settings: Homo sapiens; MDA-MB-468 (TNBC), 5 days, single dose on day 1
Excerpt: as §2

SUM149-PTXR cells [28] = test: Monolayer growth inhibition, Alamar blue assay; type: cell-based, Human; settings: Homo sapiens; SUM149-PTXR (TNBC, BRCA Mutant), 5 days, single dose on day 1
Excerpt: as §2

T47D cells [29] = test: Monolayer growth inhibition, Alamar blue assay; type: cell-based, Human; settings: Homo sapiens; T47D (ER/PR), 5 days, single dose on day 1
Excerpt: as §2

IC50 (HCC1937 cells [3])	IC50 (MDA-MB-468 cells [4])	IC50 (MDA-MB-435 cells [6])	IC50 (PC3 cells [7])	IC50 (4T1 cells [8])	IC50 (HCC1143 cells [9])	IC50 (MDA-MB-231 cells [10])	IC50 (MDA-MB-468 cells [13])	IC50 [14]	IC50 (MDA-MB-231 cells [17])	IC50 (4T1 cells [18])	IC50 (MDA-MB-435 cells [20])	IC50 (PC3 cells [21])	IC50 (HCC1937 cells [22])	SMILES	IC50 (JIMT-1 cells [1])	IC50 (SUM149-PTXR cells [5])	IC50 (SUM149 cells [11])	IC50 (All cell lines [12])	IC50 (All cell lines [15])	IC50 (JIMT-1 cells [19])	also measured
5.8 ± 0.4 µM	3.3 ± 1.3 µM	5 ± 3.6 µM	6.5 ± 2.8 µM	0.3 ± 0.1 µM	5.8 ± 2.6 µM	9.1 ± 1.3 µM	2.5 ± 2 µM	0.016 µM	0.4 ± 0.2 µM	0.7 ± 0.3 µM	5.6 ± 0.1 µM	12 ± 4.5 µM	9.2 ± 3.2 µM	C[C@@H]1CNC(=O)c2c(Cl)c3ccc(C(=O)Nc4cnn(Cc5ccccc5)c4)nc3n21 [Compound 24, (R)—N-(1-benzyl-1H-pyrazol-4-yl)-5-chloro-9-methyl-6-oxo-6,7,8,9-tetrahydropyrido[3′,2′:4,5]pyrrolo[1,2-a]pyrazine-2-carboxamide]	7.5 ± 2.2 µM	4.5 ± 1.4 µM	0.9 ± 0.3 µM	0.3 to 9.1 µM	0.5 to 12.3 µM	12.3 ± 5.9 µM	IC50 (T47D cells [2]): 2.7 ± 2.1 µM; Solubility, 20 mg/ml Solution ([16]; 100 mM in DMSO diluted in DMEM growth media to 20 mg/ml): Precipitate; IC50 (4T1 cells [23]): 0.5 ± 0.3 µM; IC50 (HCC1143 cells [24]): 4.4 ± 1.9 µM; IC50 (MDA-MB-231 cells [25]): 9.8 ± 3.1 µM; IC50 (SUM149 cells [26]): 1.1 ± 0.9 µM; IC50 (MDA-MB-468 cells [27]): 4.5 ± 2.3 µM; IC50 (SUM149-PTXR cells [28]): 3.4 ± 2.1 µM; IC50 (T47D cells [29]): 4.5 ± 4.1 µM
6.6 ± 1.6 µM	1.7 ± 0.2 µM	1.6 ± 0.3 µM	1.5 ± 0.5 µM	4.9 ± 1.1 µM	7.3 ± 2.7 µM	3.7 ± 1.8 µM	2 ± 0.2 µM	0.047 µM	0.2 ± 0.1 µM	5.3 ± 1.3 µM	3.9 ± 1.3 µM	1.9 ± 0.8 µM	5.6 ± 0.4 µM	C[C@@H]1CNC(=O)c2cc3ccc(C(=O)Nc4cnn(Cc5ccc(CN)cc5)c4)nc3n21 [Compound 26, (R)—N-(1-(4-(aminomethyl)benzyl)-1H-pyrazol-4-yl)-9-methyl-6-oxo-6,7,8,9-tetrahydropyrido[3′,2′:4,5]pyrrolo[1,2-a]pyrazine-2-carboxamide hydrochloride salt]	12.3 ± 3.2 µM	6.5 ± 2.1 µM	6.5 ± 4.4 µM	1.5 to 12.3 µM	1.9 to 15.5 µM	15.5 ± 6.6 µM	Solubility after addition of 4M NaOH ([16]; 20 mg/ml in PBS, pH equal to 9): remained in solution; Solubility, 20 mg/ml Solution ([16]; 100 mM in DMSO diluted in PBS to 20 mg/ml, hydrochloride salt): Soluble; pH of 20 mg/ml solution ([16]; DMSO stock diluted in PBS, pH test strips, hydrochloride salt): 2-9; IC50 (4T1 cells [23]): 6.2 ± 2.5 µM; IC50 (HCC1143 cells [24]): 9.6 ± 6.1 µM; IC50 (MDA-MB-231 cells [25]): 7.4 ± 1.7 µM; IC50 (SUM149 cells [26]): 9.8 ± 5.7 µM; IC50 (MDA-MB-468 cells [27]): 2.5 ± 0.7 µM; IC50 (SUM149-PTXR cells [28]): 8.8 ± 2.5 µM
